Results: article PMC6222380 (Molecules : A Journal of Synthetic Chemistry and Natural …, 2018)
Several values for one entry are separate records, joined by “and”; a condition that tells them apart may be missing. Identical values can stand only once. Like-named read-outs stand apart in the source and are kept apart here.

Tests used:
CB1 receptor = molecular target: T1, CB1 receptor (Homo sapiens, UniProt P21554); experiment: Competitive [3H]-CP55,940 radioligand binding assay, CB1; settings: for Further binding analysis at CB1 (binding curve outcome): curves plateaued well before 100% receptor occupancy (Figure S2)
T1 construct: transiently transfected with full-length human recombinant cDNA (OriGene, Rockville, MD, USA); host or cells: HEK293
T1 sequence (P21554 whole entry): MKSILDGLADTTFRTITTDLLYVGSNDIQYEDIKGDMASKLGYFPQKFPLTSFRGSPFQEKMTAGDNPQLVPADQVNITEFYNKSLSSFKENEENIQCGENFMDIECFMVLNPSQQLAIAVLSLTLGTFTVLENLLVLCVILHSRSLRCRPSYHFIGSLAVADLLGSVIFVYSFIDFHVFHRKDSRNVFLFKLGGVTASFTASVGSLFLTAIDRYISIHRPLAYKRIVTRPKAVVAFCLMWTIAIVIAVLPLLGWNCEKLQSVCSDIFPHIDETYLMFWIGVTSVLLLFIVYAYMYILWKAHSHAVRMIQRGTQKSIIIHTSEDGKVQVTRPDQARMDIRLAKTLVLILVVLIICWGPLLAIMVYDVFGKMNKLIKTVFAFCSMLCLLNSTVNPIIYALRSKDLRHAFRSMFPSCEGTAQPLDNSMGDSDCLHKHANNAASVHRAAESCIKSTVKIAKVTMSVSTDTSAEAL
Procedure: (§1) HEK293 cells were collected and transiently transfected with full-length human recombinant cDNA (OriGene, Rockville, MD, USA) containing expression clones to generate separate cell lines expressing either the CB1 or CB2 receptors (50 µg/mL) using electroporation (70 ms, single pulse, 150 volts). Transfected cells were grown in a 150 cm^2 Petri dish at 37 °C. G418 antibiotic solution (800 μg/mL) was used for selection. After selection, the HEK293 cells were further cultured until single colonies were obtained. The colonies with binding ratio (%) over 80% were chosen for binding and functional assays.
(§2) Cell plasma membranes were prepared from cells with stable expression of CB1 or CB2 receptors. Cells grown to confluency were lysed and scraped in cold 50 mM Tris-HCl buffer at pH 7.4 and then centrifuged at 1000 rpm for 10 min at 4 °C. The supernatant was discarded while the pellets were resuspended in the same buffer. A Sonic Dismembrator Model 100 (Fisher Scientific, Pittsburgh, PA, USA) was used to homogenize the cell suspension for 30 s, which was then centrifuged at 3165 rpm for 10 min at 4 °C to separate the membranes and cytosolic fractions. The supernatant was saved, and the pellet underwent the suspension and homogenization process repeated two more times with the same conditions. The supernatants were combined and centrifuged at 13,650 rpm for 40 min at 4 °C. The pellet was re-suspended in cold 50 mM Tris-HCl buffer, aliquoted into 2 mL vials, and stored at −80 °C. The total membrane protein concentration was measured using a Pierce BCA Protein Assay Kit (Thermo Scientific, Rockford, IL, USA) as per the manufacturer’s protocol.
(§3) Competitive binding assays were performed with a modified rapid filtration assay described by Ma et al. (2007) and Felder et al. (1992). […] The reaction was terminated via rapid vacuum filtration with cold Tris-HCl with 0.1% BSA through a 96-well UniFilter GF/C filter precoated with 0.5% Polyethyleneimine (PEI,) to separate bound and unbound radioligand. Filter plates were dried at 50 °C for at least 30 min, then 25 μL MicroScint-20 was applied to each filter and the plates were read on a TopCount NXT HTS Microplate Scintillation Counter (PerkinElmer, Waltham, MA). Filter bound radioactivity was recorded in counts per minute (CPM).
(§4) The percent binding of the nonlabeled control to the receptor was calculated using total, specific, and nonspecific binding. […] All the experimental data were analyzed using a nonlinear regression curve fit model using GraphPad Prism 5.0 software (GraphPad Software, Inc., San Diego, CA, USA) and the Kd value was calculated. Each compound was tested in triplicate, unless stated otherwise.
(§5) Percent displacement of radioligand was determined using the following equation:(1) % displacement of radioligand=100 –(compound.CPM−nonspecific.CPM/specific.CPM ×100)
(§6) The IC50 and Ki values were calculated from a nonlinear regression curve fit model using GraphPad Prism 5.0 software (GraphPad Software, Inc., San Diego, CA, USA).

CB2 receptor = molecular target: T2, CB2 receptor (Homo sapiens, UniProt P34972); experiment: Competitive [3H]-CP55,940 radioligand binding assay, CB2; settings: for IC50: Table 1, superscript a = up to solubility limit, read-out: IC50 ± SEM CB2; for Ki: read-out: Ki ± SEM CB2
T2 construct: transiently transfected with full-length human recombinant cDNA (OriGene, Rockville, MD, USA); host or cells: HEK293
T2 sequence (P34972 whole entry): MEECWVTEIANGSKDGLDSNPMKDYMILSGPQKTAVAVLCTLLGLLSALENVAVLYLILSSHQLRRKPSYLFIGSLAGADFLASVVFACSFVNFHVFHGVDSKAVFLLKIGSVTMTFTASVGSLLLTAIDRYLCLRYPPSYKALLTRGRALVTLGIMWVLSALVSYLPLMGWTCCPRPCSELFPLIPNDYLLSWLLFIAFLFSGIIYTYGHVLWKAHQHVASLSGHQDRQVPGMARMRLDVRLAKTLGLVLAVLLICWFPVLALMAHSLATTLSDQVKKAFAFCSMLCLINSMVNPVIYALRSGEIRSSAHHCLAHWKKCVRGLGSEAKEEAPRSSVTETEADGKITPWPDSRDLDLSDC
Procedure: as §1, §2, §3, §4, §5, §6

[1] = molecular target: T3, human cannabinoid type 1 receptor (Homo sapiens, UniProt P21554); experiment: CB1 GTPγS functional assay; assay type: biochemical
T3 construct: transiently transfected with full-length human recombinant cDNA (OriGene, Rockville, MD, USA); host or cells: HEK293
T3 sequence (P21554 whole entry): as the sequence (P21554 whole entry) above
Procedure: The CB1 GTPγS functional assays were performed as previously described with some modifications. The assays were performed in […] of 50 mM Tris-HCl, pH = 7.4, 150 mM NaCl, 9 mM MgCl2, 0.2 mM EDTA, 1.4 mg/mL essentially fatty acid free BSA, 50 pM [^35S]-GTPγS ([^35S]-guanosine 5′-(γ-thio) triphosphate (PerkinElmer, Waltham, Massachusetts)), and 30 μg of protein per well harvested from HEK293 cells stably transfected with a plasmid overexpressing the human cannabinoid type 1 receptor. […] Plates were incubated for 90 min at 37 °C with gentle agitation in 96-well microplates, harvested with a PerkinElmer FilterMate Harvester through Unifilter GF/B filter plates (prewetted for 30 min with 0.3% BSA), and then washed 10× with […] of ice-cold 50 mM TrisHCl, pH 7.4. The filter plates were dried at 50 °C for at least 30 min. The radioactivity retained on the filters was quantified by adding […] MicroScint20 per well, incubating the filter plate overnight at room temperature to allow the radioactivity to solubilize into the scintillation fluid, and counting on a TopCount NXT Microplate Scintillation counter. Percent over basal was calculated in Microsoft Excel by subtracting the mean basal control from each value obtained and then dividing by the basal specific activity (mean basal control∓mean nonspecific binding control). Dose response curves (± SEM) of percent over basal versus log of the molar concentration of unlabeled ligand(s) were generated by a nonlinear curve fit model using GraphPad Prism 5.0 software.

[2] = Table 1, initial full-curve binding, superscript a = up to solubility limit, read-out: IC50 ± SEM CB1
[3] = Table 1 and text, initial full-curve binding, read-out: Ki ± SEM CB1
[4] = Table S1 preliminary screening, 10 μM

CN(Cc1ccccc1)Cc1c(O)ccc2c1OC(=Cc1cn(C)c3ccccc13)C2=O [Compound 18]
IC50 (CB1 receptor; [2]): 24.6 ± 2.6 µM | Ki (CB1 receptor; [3]): 12300 ± 1300 nM | % displacement at 10 μM CB1 (CB1 receptor; [4]): 69% | IC50 (CB2 receptor): 0.101 ± 0.035 µM | Ki (CB2 receptor; Table 1 and text): 51 ± 10 nM | % displacement at 10 μM CB2 (CB2 receptor; [4]): 61.2%

COc1ccc(-n2cc(C(=O)O)c3c2C(c2ccc(O)c(OC)c2)CC(=O)N3)cc1 (stereo not shown) [Compound 11]
% displacement at 10 μM CB1 (CB1 receptor; [4]): 37.6% | % displacement at 10 μM CB2 (CB2 receptor; [4]): 13.1%

Cc1ccc(COc2ccc(-c3nc(N)ncc3Oc3ccccc3Br)c(O)c2)cc1 [Compound 15]
Further binding analysis at CB1 (binding curve outcome) (CB1 receptor): no true affinity | % displacement at 10 μM CB2 (CB2 receptor; [4]): 35.5%

CCCCCCc1cc(-c2onc(C)c2-c2ccc(Br)cc2)c(O)cc1OC [PCB-164]
% displacement at 10 μM CB1 (CB1 receptor; Table 2, 10 µM): 29.8% | Ki (CB2 receptor; Table 2, analogs of compound 16): 156 ± 17.3 nM | % displacement at 10 μM CB2 (CB2 receptor; Table 2, 10 µM): 97.2%

O=C(COc1cc(O)c2c(=O)cc(-c3ccccc3)oc2c1)NCCCN1CCCC1=O [Compound 9]
% displacement at 10 μM CB1 (CB1 receptor; [4]): 28.6% | % displacement at 10 μM CB2 (CB2 receptor; [4]): 30.2%

COC(=O)CC(c1ccc(O)cc1)c1oc(CSc2ccccc2)cc(=O)c1O (stereo not shown) [Compound 14]
% displacement at 10 μM CB1 (CB1 receptor; [4]): 18.7% | % displacement at 10 μM CB2 (CB2 receptor; [4]): 30%

Oc1ccc(-c2onc(C(F)(F)F)c2-c2ccccc2)c(O)c1 [PCB-165]
Ki (CB1 receptor; Table 2, analogs of compound 16, read-out: Ki ± SEM CB1): > 10000 nM | % displacement at 10 μM CB1 (CB1 receptor; Table 2, 10 µM): 33.0%

COc1ccc2[nH]c3c(c2c1)CCN1C(=O)CN(CCc2c[nH]c4ccccc24)C(=O)[C@]31C [Compound 2]
EC50 [1]: 759 nM | Functional phenotype at CB1 in GTPγS assay [1]: inverse agonists | IC50 (CB1 receptor; [2]): 3.2 ± 1 µM | Ki (CB1 receptor; [3]): 1600 nM and 1620 nM | % displacement at 10 μM CB1 (CB1 receptor; [4]): 81.8% | IC50 (CB2 receptor): 3.25 ± 0.5 µM | Ki (CB2 receptor; Table 1 and text): 1600 nM and 1620 nM | % displacement at 10 μM CB2 (CB2 receptor; [4]): 67.2%

COc1ccccc1NC(=O)C1CC(O)CN1C(=O)OCc1ccccc1 (stereo not shown) [Compound 4]
% displacement at 10 μM CB1 (CB1 receptor; [4]): 13.9%

COc1ccc2[nH]c3c(c2c1)CCNC3c1c(O)n(CCc2ccccc2)c(=S)[nH]c1=O (stereo not shown) [Compound 7]
Further binding analysis at CB1 (binding curve outcome) (CB1 receptor): no true affinity | % displacement at 10 μM CB2 (CB2 receptor; [4]): 15.7%

O=c1[nH]n(C2CCCCCC2)c2nc3c(oc4c(O)c(O)ccc43)c(-c3ccc(O)cc3)c12 [Compound 13]
% displacement at 10 μM CB1 (CB1 receptor; [4]): 23.1% | % displacement at 10 μM CB2 (CB2 receptor; [4]): 37.4%

COC(=O)CC(c1ccc2c(c1)OCO2)c1oc(CSc2ccccc2)cc(=O)c1O (stereo not shown) [Compound 12]
EC50 [1]: 1600 nM | Functional phenotype at CB1 in GTPγS assay [1]: inverse agonists | IC50 (CB1 receptor; [2]): > 5.3 µM | Ki (CB1 receptor; [3]): > 2600 nM | % displacement at 10 μM CB1 (CB1 receptor; [4]): 69.9% and > 50% | IC50 (CB2 receptor): > 5.93 µM | Ki (CB2 receptor; Table 1 and text): > 2970 nM | % displacement at 10 μM CB2 (CB2 receptor; [4]): 63% and > 50%

Cc1noc(-c2ccc(O)cc2O)c1-c1ccc(Br)cc1 [Compound 16]
Functional phenotype at CB1 in GTPγS assay [1]: inverse agonist | EC50 ([1]; read-out: EC50 CB1 GTPγS): 128 nM | IC50 (CB1 receptor; 16 rescreened, data from Figure 4, up to solubility limit, read-out: IC50 ± SEM CB1 (rescreen)): 0.242 ± 0.07 µM | Ki (CB1 receptor; 16 rescreened, data from Figure 4, up to solubility limit, read-out: Ki ± SEM CB1 (rescreen)): 121 ± 40 nM | IC50 (CB1 receptor; [2]): 20.8 ± 4.9 µM | Ki (CB1 receptor; [3]): 10400 ± 2500 nM | % displacement at 10 μM CB1 (CB1 receptor; [4]): 61.8% | Ki (CB1 receptor; rescreen experiment, value printed in picture, read-out: CB1 Receptor Binding Ki (printed in Figure 4)): 121 nM | % displacement at 10 μM CB2 (CB2 receptor; [4]): 40.2%

O=C(O)C(Cc1ccccc1)NCc1c(O)ccc2c(-c3ccccc3)cc(=O)oc12 (stereo not shown) [Compound 1]
% displacement at 10 μM CB1 (CB1 receptor; [4]): 14.1%

COc1cc(C)cc2oc(=O)c(CC(=O)N[C@@H](CSCc3ccccc3)C(=O)O)c(C)c12 [Compound 5]
% displacement at 10 μM CB1 (CB1 receptor; [4]): 14% | % displacement at 10 μM CB2 (CB2 receptor; [4]): 15.5%

COc1ccc2c(ccn2CCC(=O)N[C@@H](Cc2c[nH]c3ccccc23)C(=O)O)c1 [Compound 10]
% displacement at 10 μM CB1 (CB1 receptor; [4]): 30.2% | % displacement at 10 μM CB2 (CB2 receptor; [4]): 17.3%

COC(=O)c1ccc(C=C2Oc3c(ccc(O)c3CN(CC(C)C)CC(C)C)C2=O)cc1 [Compound 17]
Further binding analysis at CB1 (binding curve outcome) (CB1 receptor): no true affinity | % displacement at 10 μM CB2 (CB2 receptor; [4]): 35%

Cc1cc(O)c2c(C)c(CC(=O)N[C@@H](CSCc3ccccc3)C(=O)O)c(=O)oc2c1 [Compound 6]
% displacement at 10 μM CB1 (CB1 receptor; [4]): 28% | % displacement at 10 μM CB2 (CB2 receptor; [4]): 26.7%

COCCN1C(=O)C(O)=C(C(=O)c2ccc3c(c2)CC(C)O3)C1c1ccc(C(C)C)cc1 (stereo not shown) [Compound 3]
% displacement at 10 μM CB1 (CB1 receptor; [4]): ~ 10% | Ki (CB2 receptor; Table 1 and text): 2600 nM | % displacement at 10 μM CB2 (CB2 receptor; [4]): 51% and > 50%
